Data taken from patent US20260152503A1, “SPIROBICYCLIC COMPOUNDS” (ACERAND THERAPEUTICS (HONG KONG) LIMITED, priority 2022, published 2026).
pIC50: −log10 of the molar value.

Assays:
FGFR2 = target: T1, FGFR2 (Homo sapiens, UniProt P21802, K310R/N549K); test: pERK potency assay (In Cell ELISA), AN3CA cells; format: cell-based; details: for pIC50: pERK, AN3CA (FGFR2/k310R, N549K) cells, 3 hours; for FGFR1 IC50/FGFR2 IC50 / FGFR3 IC50/FGFR2 IC50: selectivity ratio, pERK potency; for FGFR1 IC50/FGFR2 IC50: FGFR2 relative to FGFR1; for FGFR3 IC50/FGFR2 IC50: FGFR2 relative to FGFR3
T1 construct: in FGFR aberrations of AN3CA (FGFR2/k310R, N549K); host or cells: AN3CA
T1 sequence (P21802 22-821 K310R/N549K): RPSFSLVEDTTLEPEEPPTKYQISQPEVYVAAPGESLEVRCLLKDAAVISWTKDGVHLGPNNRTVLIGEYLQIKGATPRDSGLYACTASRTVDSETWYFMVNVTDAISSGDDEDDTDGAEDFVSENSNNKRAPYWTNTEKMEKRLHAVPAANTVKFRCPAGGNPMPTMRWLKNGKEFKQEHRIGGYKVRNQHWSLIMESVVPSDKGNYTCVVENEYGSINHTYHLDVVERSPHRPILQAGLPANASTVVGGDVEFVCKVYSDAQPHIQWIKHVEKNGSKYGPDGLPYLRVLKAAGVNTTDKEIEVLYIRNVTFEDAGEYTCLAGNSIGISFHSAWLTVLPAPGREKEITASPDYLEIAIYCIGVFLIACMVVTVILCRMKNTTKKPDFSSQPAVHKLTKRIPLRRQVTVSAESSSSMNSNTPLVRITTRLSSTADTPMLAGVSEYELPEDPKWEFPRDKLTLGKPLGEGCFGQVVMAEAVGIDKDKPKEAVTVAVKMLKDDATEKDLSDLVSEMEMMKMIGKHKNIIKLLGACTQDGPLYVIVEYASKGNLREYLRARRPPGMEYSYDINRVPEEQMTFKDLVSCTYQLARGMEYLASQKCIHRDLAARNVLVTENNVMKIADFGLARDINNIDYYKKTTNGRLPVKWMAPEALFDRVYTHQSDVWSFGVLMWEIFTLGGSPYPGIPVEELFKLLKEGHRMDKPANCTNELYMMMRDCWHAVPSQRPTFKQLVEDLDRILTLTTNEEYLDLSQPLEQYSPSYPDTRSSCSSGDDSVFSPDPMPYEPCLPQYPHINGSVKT
Method in brief: (§1)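 IC50 values come from a 4-parameter sigmoidal fit of in-cell ELISA chemiluminescent pERK (Thr202/Tyr204) signal. Treatment lasted 3 h at 37 °C, final 0.000038 to 10 μM in 4-fold steps, using AN3CA (mutant FGFR2), DMS114 (amplified FGFR1) and RT112 (FGFR3 overexpression/fusion) cells.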

FGFR1 = target: T2, FGFR1 (Homo sapiens, UniProt P11362); test: pERK potency assay (In Cell ELISA), DMS114 cells; format: cell-based; details: DMS114 (FGFR1 amplification) cells, 3 hours
T2 construct: DMS114 (FGFR1 amplification); host or cells: DMS114
T2 sequence (P11362 22-822): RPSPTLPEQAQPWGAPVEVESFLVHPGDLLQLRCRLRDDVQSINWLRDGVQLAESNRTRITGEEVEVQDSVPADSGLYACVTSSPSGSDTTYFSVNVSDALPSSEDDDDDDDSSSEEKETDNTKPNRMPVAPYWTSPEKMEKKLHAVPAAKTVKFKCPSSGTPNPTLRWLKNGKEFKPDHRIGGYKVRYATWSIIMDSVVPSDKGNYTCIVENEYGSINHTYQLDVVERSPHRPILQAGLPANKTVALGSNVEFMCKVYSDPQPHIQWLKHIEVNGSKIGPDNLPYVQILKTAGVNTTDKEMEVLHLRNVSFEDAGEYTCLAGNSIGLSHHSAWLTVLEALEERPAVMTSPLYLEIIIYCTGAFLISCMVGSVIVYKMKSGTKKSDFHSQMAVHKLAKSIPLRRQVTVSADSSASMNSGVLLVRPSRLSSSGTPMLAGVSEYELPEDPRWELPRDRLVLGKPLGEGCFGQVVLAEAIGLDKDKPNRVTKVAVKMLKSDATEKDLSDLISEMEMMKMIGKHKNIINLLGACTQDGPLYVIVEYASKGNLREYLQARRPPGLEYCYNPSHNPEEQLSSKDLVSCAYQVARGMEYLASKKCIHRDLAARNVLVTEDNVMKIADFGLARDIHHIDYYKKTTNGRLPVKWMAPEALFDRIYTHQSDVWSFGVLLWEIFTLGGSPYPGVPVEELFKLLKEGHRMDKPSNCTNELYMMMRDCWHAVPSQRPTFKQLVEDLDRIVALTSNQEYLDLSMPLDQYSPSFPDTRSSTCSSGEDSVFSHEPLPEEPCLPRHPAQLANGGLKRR
Method in brief: as §1

FGFR3 = target: T3, FGFR3 (Homo sapiens, UniProt P22607); test: pERK potency assay (In Cell ELISA), RT112 cells; format: cell-based; details: RT112 (FGFR3 overexpression/FGFR3-TACC3 fusion) cells, 3 hours
T3 construct: RT112 (FGFR3 overexpression/FGFR3-TACC3 fusion); host or cells: RT112; the other entry of the earlier key: TACC3 (Q9Y6A5, Transforming acidic coiled-coil-containing protein 3)
Method in brief: as §1

AN3CA = test: 2D cell proliferation assay, AN3CA; format: cell-based; details: Homo sapiens, AN3-CA, 96 hours, CTG, read-out: Cell Line, IC50 AN3CA
Description: (§2) Low IC50 values are indicative of the high potency of the FGFR inhibitor compounds in this assay selling. […] Cell proliferation assays are performed in two-dimensional (2D)) anchorage-dependent conditions in 96 well plates (Corning® Black/Clear flat Bottom, Cat #3603) with the following cell lines: • Ba/F3 FGFR2-BICC1 (human […]): Mouse Ba/F3 cell line stably expressed exogenous human FGFR2-BICC1 fusion gene bearing V546F mutation in FGFR2 Ba/F3; • FGFR2-BICC1 (human FGFR2/[…]): Mouse Ba/F3 cell line stably expressed exogenous human FGFR2-BICC1 fusion gene bearing N549K mutation in FGFR2; • Snu-16: human gastric cancer cell with FGFR2 amplification; • KATO III: human gastric cancer cell with FGFR2 amplification; • AN3CA: Human endometrial cancer with FGFR2 mutation (k310R, N549K); • MFM-223: Human breast cancer with FGFR1/2 amplification; • MFE-296: Human endometrial cancer with FGFR2 mutation (N549K); • MFE-280: Human endometrial cancer with FGFR2 mutation ([…]); • NCI-H1581: human non-small cell lung cancer with FGFR1 amplification; • KG-1a: Acute myelogenous leukemia with FGFR1OP2-FGFR1 translocation; • DMS114: human small cell carcinoma of the lung with FGFR1 amplification; • RT112: human bladder cancer with FGFR3 overexpression/FGFR3-TACC3 fusion; • SW780: human bladder cancer with FGFR3 overexpression/FGFR3-BALAP2L1 fusion; • Hep3B: Liver cancer with FGF19 amplification (FGFR4 ligand); • AGS: Human gastric adenocarcinoma with Kras G12D mutation and FGFR wild type; • PC-9: human non-small cell lung cancer (NSCLC) with wild-type FGFR and an EGFR del19 mutation; or • H1975: human non-small cell lung cancer (NSCLC) with wild-type FGFR and EGFR L858R/T790M mutation.
(§3) Cell lines are purchased from the American Type Culture Collection (ATCC) or Sigma. All cell lines are maintained in RPMI-1640 or DMEM supplemented with 10% heat-inactivated fetal bovine serum.
(§4) Cells growing in the log phase are detached with Gibco™ TrypLE™ Express Enzyme and plated in 96 well plate at 3000 to 5000 cells/well in 100 μl of media. After overnight incubation at 37° C., 5% CO2 incubator, cells are treated with compounds (50 uL/well) at the final concentrations spanning from 0.000038 uM to 10 μM (4-fold serial dilution for total of 10 points). Cells are incubated at 37° C., 5% CO2, and 95% humidity incubator for 96 hours. At the end of incubation 2D CTG reagent from Promega was added to each well according to vendors recommendation and mixed for 10 min in dark. The luminescence signals are determined with a Biotek™ plate reader. Data is fitted using a sigmoidal curve analysis program (GraphPad Prism®) with variable hill slope and IC50 is determined.

Ba/F3 FGFR2-N549K = target: T4, Ba/F3 FGFR2-N549K (Homo sapiens, UniProt P21802, N549K, cells depend on it); test: 2D cell proliferation assay, Ba/F3 FGFR2-N549K; format: cell-based, mouse; details: 96 hours, CTG, read-out: Cell Line, IC50 Ba/F3 FGFR2-N549K
T4 construct: fused on or other part: Q9H694 (Protein bicaudal C homolog 1)
T4 sequence (P21802 whole entry N549K, the tested form may be a part): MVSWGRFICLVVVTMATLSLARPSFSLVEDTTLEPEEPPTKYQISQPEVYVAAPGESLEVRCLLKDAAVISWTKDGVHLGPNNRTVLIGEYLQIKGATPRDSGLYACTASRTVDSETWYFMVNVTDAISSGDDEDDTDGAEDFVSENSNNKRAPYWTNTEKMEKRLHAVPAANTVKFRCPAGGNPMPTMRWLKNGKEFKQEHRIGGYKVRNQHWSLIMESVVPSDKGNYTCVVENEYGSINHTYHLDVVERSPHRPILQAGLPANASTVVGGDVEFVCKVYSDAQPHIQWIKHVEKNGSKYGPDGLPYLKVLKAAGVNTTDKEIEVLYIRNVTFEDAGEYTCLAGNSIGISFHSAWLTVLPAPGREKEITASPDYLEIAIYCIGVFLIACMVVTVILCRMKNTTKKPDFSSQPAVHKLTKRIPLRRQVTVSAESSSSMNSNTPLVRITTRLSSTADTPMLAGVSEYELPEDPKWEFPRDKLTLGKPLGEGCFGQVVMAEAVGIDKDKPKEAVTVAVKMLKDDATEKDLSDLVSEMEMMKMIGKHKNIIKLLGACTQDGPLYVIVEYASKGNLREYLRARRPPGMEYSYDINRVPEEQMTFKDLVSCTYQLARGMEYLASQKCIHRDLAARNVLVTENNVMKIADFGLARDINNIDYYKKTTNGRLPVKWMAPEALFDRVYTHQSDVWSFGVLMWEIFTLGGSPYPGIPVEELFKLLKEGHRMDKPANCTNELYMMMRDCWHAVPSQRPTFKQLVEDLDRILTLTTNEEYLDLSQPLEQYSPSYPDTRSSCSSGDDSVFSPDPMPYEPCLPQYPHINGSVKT
Method in brief: (§5)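 Cells seeded at 3000–5000 cells/well in RPMI-1640 or DMEM with 10% FBS, treated next day with compounds at 0.000038–10 μM final (4-fold, 10 points) for 96 h at 37°C, 5% CO2. Viability by CellTiter-Glo luminescence; IC50 from sigmoidal variable-slope fit.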

Ba/F3 FGFR2-V564F = target: T5, Ba/F3 FGFR2-V564F (Homo sapiens, UniProt P21802, V564F, cells depend on it); test: 2D cell proliferation assay, Ba/F3 FGFR2-V564F; format: cell-based, mouse; details: 96 hours, CTG, read-out: Cell Line, IC50 Ba/F3 FGFR2-V564F
T5 construct: fused on or other part: Q9H694 (Protein bicaudal C homolog 1)
T5 sequence (P21802 whole entry V564F, the tested form may be a part): as the sequence (P21802 whole entry N549K, the tested form may be a part) above, with K549N, V564F counted along it
Method in brief: as §5

KATO III = test: 2D cell proliferation assay, KATO III; format: cell-based; details: Homo sapiens, 96 hours, CTG, read-out: Cell Line, IC50 KATO III
Description: as §2, §3, §4

SNU-16 = test: 2D cell proliferation assay, SNU-16; format: cell-based; details: Homo sapiens, 96 hours, CTG, read-out: Cell Line, IC50 SNU-16
Description: as §2, §3, §4

Row | SMILES | pIC50 (FGFR2) | pIC50 (FGFR1) | pIC50 (FGFR3) | GI50 (Ba/F3 FGFR2-N549K) [nM] | GI50 (Ba/F3 FGFR2-V564F) [nM] | pIC50 (SNU-16) | FGFR1 IC50/FGFR2 IC50 (FGFR2) | FGFR3 IC50/FGFR2 IC50 (FGFR2) | pIC50 (AN3CA) | pIC50 (KATO III)
1 | C=CC(=O)N1CCC2(CC=C(c3c(-c4ncc(C(F)(F)F)cn4)c4c(N)ncnc4n3C)CC2)CC1 [Example 42, 1-(9-(4-amino-7-methyl-5-(5-(trifluoromethyl)pyrimidin-2-yl)-7H-pyrrolo[2,3-d]pyrimidin-6-yl)-3-azaspiro[5.5]undec-8-en-3-yl)prop-2-en-1-one] | ≥ 9.00 | < 7.00 | < 7.00 | 1 to 10 | 1 to 10 | 7.52 to 8.00 | J (a selectivity ratio greater than 2000) | J (a selectivity ratio greater than 2000) | 7.52 to 8.00 | 7.52 to 8.00
2 | C=CC(=O)N1CCC2(CC=C(c3c(C#N)c4c(N)ncnc4n3C)CC2)CC1 [Example 57, 6-(3-acryloyl-3-azaspiro[5.5]undec-8-en-9-yl)-4-amino-7-methyl-7H-pyrrolo[2,3-d]pyrimidine-5-carbonitrile] | 8.00 to 9.00 | < 7.00 | < 7.00 | 10 to 30 | > 100 | 8.00 to 9.00 | G (a selectivity ratio greater than 150 but less than or equal to 500) | H (a selectivity ratio greater than 500 but less than or equal to 1000) | 8.00 to 9.00 | 8.00 to 9.00
3 | C=CC(=O)N1CCC2(CC=C(c3c(-c4cnccn4)c4c(N)ncnc4n3C)CC2)CC1 [Example 59, 1-(9-(4-amino-7-methyl-5-(pyrazin-2-yl)-7H-pyrrolo[2,3-d]pyrimidin-6-yl)-3-azaspiro[5.5]undec-8-en-3-yl)prop-2-en-1-one] | 8.00 to 9.00 | < 7.00 | < 7.00 | 1 to 10 | ≤ 1 | 7.00 to 7.52 | F (a selectivity ratio greater than 50 but less than or equal to 150) | H (a selectivity ratio greater than 500 but less than or equal to 1000) | 7.00 to 7.52 | 7.00 to 7.52
4 | C=CC(=O)N1CCC2(CC=C(c3c(-c4ccc(Oc5nccc(C)n5)c(F)c4)c4c(N)ncnc4n3C)CC2)CC1 [Example 62, 1-(9-(4-amino-5-(3-fluoro-4-((4-methylpyrimidin-2-yl)oxy)phenyl)-7-methyl-7H-pyrrolo[2,3-d]pyrimidin-6-yl)-3-azaspiro[5.5]undec-8-en-3-yl)prop-2-en-1-one] | 8.00 to 9.00 | < 7.00 | < 7.00 | 10 to 30 | ≤ 1 | 7.52 to 8.00 | F (a selectivity ratio greater than 50 but less than or equal to 150) | G (a selectivity ratio greater than 150 but less than or equal to 500) | 7.00 to 7.52 | 7.52 to 8.00

Second part, led by results:

Row | pIC50 (FGFR2) | pIC50 (FGFR1) | pIC50 (FGFR3) | GI50 (Ba/F3 FGFR2-N549K) [nM] | GI50 (Ba/F3 FGFR2-V564F) [nM] | pIC50 (SNU-16) | SMILES | FGFR1 IC50/FGFR2 IC50 (FGFR2) | FGFR3 IC50/FGFR2 IC50 (FGFR2) | pIC50 (AN3CA) | pIC50 (KATO III)
5 | ≥ 9.00 | < 7.00 | < 7.00 | 1 to 10 | 1 to 10 | 7.52 to 8.00 | C=CC(=O)N1CCC2(CC=C(c3c(-c4ncc(C#N)cn4)c4c(N)ncnc4n3C)CC2)CC1 [Example 51, 2-(6-(3-acryloyl-3-azaspiro[5.5]undec-8-en-9-yl)-4-amino-7-methyl-7H-pyrrolo[2,3-d]pyrimidin-5-yl)pyrimidine-5-carbonitrile] | J (a selectivity ratio greater than 2000) | J (a selectivity ratio greater than 2000) | 7.00 to 7.52 | 7.52 to 8.00
6 | ≥ 9.00 | < 7.00 | < 7.00 | 1 to 10 | ≤ 1 | 8.00 to 9.00 | C=CC(=O)N1CCC2(CC=C(c3c(-c4ncc(C(F)F)cn4)c4c(N)ncnc4n3C)CC2)CC1 [Example 56, 1-(9-(4-amino-5-(5-(difluoromethyl)pyrimidin-2-yl)-7-methyl-7H-pyrrolo[2,3-d]pyrimidin-6-yl)-3-azaspiro[5.5]undec-8-en-3-yl)prop-2-en-1-one] | G (a selectivity ratio greater than 150 but less than or equal to 500) | I (a selectivity ratio greater than 1000 but less than or equal to 2000) | ≥ 9.00 | 8.00 to 9.00
7 | 8.00 to 9.00 | < 7.00 | < 7.00 | 10 to 30 | 1 to 10 | 7.52 to 8.00 | C=CC(=O)N1CCC2(CC=C(c3[nH]c4ncnc(N)c4c3-c3ncccn3)CC2)CC1 [Example 58, 1-(9-(4-amino-5-(pyrimidin-2-yl)-7H-pyrrolo[2,3-d]pyrimidin-6-yl)-3-azaspiro[5.5]undec-8-en-3-yl)prop-2-en-1-one] | G (a selectivity ratio greater than 150 but less than or equal to 500) | H (a selectivity ratio greater than 500 but less than or equal to 1000) | 8.00 to 9.00 | 7.52 to 8.00
